The record followed here is patent US20250144138A1, “Chimeric Antigen Receptor Therapies and Vasoactive Intestinal Peptide Receptor Antagonists” (Emory University, priority 2021, published 2025).

In the test the test system is CAR T cells. As to the kind of experiment: Proliferation of CAR T cells co-cultured with antigen-relevant target cells, treated with exogenous VIP and/or VIPR antagonist. It is filed as cell-based. As to the method: Experiments were performed to determine whether antigen-stimulation increases VPAC1+ CAR T cells and VIPR antagonism enhances CAR T cell proliferation in the presence of VIP. CAR T cells were co-cultured alone or with antigen-relevant or antigen-irrelevant […] for 24 hrs. VPAC1 and VPAC2 expression was evaluated via flow cytometry. […] CAR T cells co-cultured with antigen-relevant target cells were treated with exogenous VIP and/or VIPR antagonist. Proliferation of CAR T cells is suppressed by VIP and rescued by exogenous VIPR antagonist (FIGS. 2A-2C).

Consider vasoactive intestinal peptide [VIP], for which the “Proliferation of CAR T cells” value was “suppressed”.
